# Assays:
# Proteus rettgeri = test: MIC against clinical isolates; assay type: cell-based; details: clinical isolate, unit assumed
# Salmonella typhi = test: MIC against clinical isolates; assay type: cell-based; details: unit assumed
# β-lactamase = test: Resistant activity against β-lactamase, iodometric assay; assay type: biochemical, Pseudomonas aeruginosa GN 238; details: relative to Potassium Penicillin G = 100
# Description: (3) Resistant activity against β-lactamase, Pseudomonas aergionan GN 238:
# The resistant activity of each compound against β-lactamase was measured in the manner described below.
# β-Lactamase was prepared from Pseudomonas aeruginosa GN 238. This microorganism was cultured in 100 ml of a medium containing 2 g of yeast extract, 10 g of polypeptone, 2 g of glucose, 7 g of disodium hydrogen phosphate, 2 g of potassium dihydrogen phosphate, 1.2 g of ammonium sulfate and 0.4 g of magnesium sulfate, per liter, in a 500-ml Erlenmeyer flask for 6 hrs. at 37° C with shaking. The resulting cells were collected by centrifugation (5,000 r.p.m. × 10 min.), washed three times with 0.1 M phosphate buffer (pH 7.0). Subsequently, the cells were subjected to sonication (20 KHz, 20 min.) and then centrifuged at 15,000 r.p.m. for 60 min. By using the supernatant of enzyme fluid, the resistance of each compound against β-lactamase was determined by the iodometric assay method. Each numeral shown in Table 7 is a relative activity value calculated by assuming as 100 the activity of the control Potassium Penicillin G.
# Escherichia coli NIHJ = test: MIC against standard strain, plate method; assay type: cell-based; details: unit assumed
# Outline: (§1)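 MIC values come from the plate method on heart infusion agar at pH 7.4, with each plate receiving 10^4 cells from a 10^6 cells/ml suspension.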
# [1] = tested on: Staphylococcus aureus 209p; test: MIC against standard strain, plate method; assay type: cell-based; details: unit assumed
# Outline: as §1
# Proteus vulgaris 3027 = test: MIC against standard strain, plate method; assay type: cell-based; details: Proteus vulgaris 3027, standard strain; unit assumed
# Outline: as §1
# Salmonella typhi-murium = test: MIC against clinical isolates; assay type: cell-based; details: unit assumed
# Proteus morganii = test: MIC against clinical isolates; assay type: cell-based; details: clinical isolate, unit assumed
# Escherichia coli = test: MIC against clinical isolates; assay type: cell-based; details: unit assumed
# Pseudomonas aeruginosa = test: MIC against clinical isolates; assay type: cell-based; details: unit assumed
# Proteus vulgaris = test: MIC against clinical isolates; assay type: cell-based; details: clinical isolate, unit assumed
# Shigella flexneri = test: MIC against clinical isolates; assay type: cell-based; details: clinical isolate JS 11215; unit assumed
# Description: (§2) The minimum inhibitory concentrations (MIC) was determined by the plate method disclosed in "Chemotherapy" (Japan), Vol. 16, (1968), pages 98 - 99. The culture medium used was a Heart infusion agar (pH 7.4). The number of the cells per plate used in the inoculum as 10^4 (10^6 cells/ml).
# (§3) MIC was determined in the same manner as in the preceding paragraph (1).
# Shigella sonnei = test: MIC against clinical isolates; assay type: cell-based; details: clinical isolate JS 11232; unit assumed
# Description: as §2, §3
# Staphylococcus aureus = test: MIC against clinical isolates; assay type: cell-based; details: unit assumed
# Proteus mirabilis = test: MIC against clinical isolates; assay type: cell-based; details: clinical isolate, unit assumed
# Klebsiella pneumoniae [2] = test: MIC against clinical isolates; assay type: cell-based; details: unit assumed
# [3] = tested on: Pseudomonas aeruginosa I.F.O.; test: MIC against standard strain, plate method; assay type: cell-based; details: unit assumed
# Outline: as §1
# Klebsiella pneumoniae [4] = test: MIC against standard strain, plate method; assay type: cell-based; details: unit assumed
# Outline: as §1
# [5] = clinical isolate GN (number not given; Table 5-3)
Compound,MIC (Proteus rettgeri),Relative activity (β-lactamase),MIC (Escherichia coli NIHJ),MIC [1],MIC (Proteus vulgaris 3027),MIC (Proteus morganii),MIC (Escherichia coli; clinical isolate GN 3465),MIC (Escherichia coli; clinical isolate GN 3611),MIC (Escherichia coli; clinical isolate K-3),MIC (Pseudomonas aeruginosa; clinical isolate GN 383),MIC (Pseudomonas aeruginosa; clinical isolate GN 1035),MIC (Pseudomonas aeruginosa; clinical isolate GN 2565),MIC (Pseudomonas aeruginosa; clinical isolate GN 2987),MIC (Pseudomonas aeruginosa; [5]),MIC (Pseudomonas aeruginosa; clinical isolate S-1),MIC (Pseudomonas aeruginosa; clinical isolate S-2),MIC (Pseudomonas aeruginosa; clinical isolate S-3),MIC (Pseudomonas aeruginosa; clinical isolate S-4),MIC (Proteus vulgaris),MIC (Staphylococcus aureus; clinical isolate F-5),also measured
"CN1CCN(C(=O)N[C@@H](C(=O)N[C@@H]2C(=O)N3[C@@H]2SC(C)(C)[C@@H]3C(=O)O)c2ccccc2)C(=O)C1=O (single isomer, unassigned) [compound 37]",25 µg/mL,15%,< 1.57 µg/mL,< 1.57 µg/mL,< 1.57 µg/mL,0.79 µg/mL,200 µg/mL,> 200 µg/mL,> 200 µg/mL,25 µg/mL,50 µg/mL,25 µg/mL,25 µg/mL,50 µg/mL,200 µg/mL,25 µg/mL,50 µg/mL,100 µg/mL,< 0.4 µg/mL,> 200 µg/mL,MIC (Salmonella typhi; clinical isolate SL 819): 6.25 µg/mL; MIC (Salmonella typhi; clinical isolate SL 2169): 3.13 µg/mL; MIC (Salmonella typhi-murium; clinical isolate SL 858): 12.5 µg/mL; MIC (Salmonella typhi-murium; clinical isolate SL 2136): > 200 µg/mL; MIC (Shigella flexneri): > 200 µg/mL; MIC (Shigella sonnei): 100 µg/mL; MIC (Staphylococcus aureus; clinical isolate F-2): 1.57 µg/mL; MIC (Staphylococcus aureus; clinical isolate MS 8619): 0.79 µg/mL; MIC (Proteus mirabilis): 0.79 µg/mL; MIC (Klebsiella pneumoniae [2]; clinical isolate GN 3850): 25 µg/mL; MIC (Klebsiella pneumoniae [2]; clinical isolate GN 4081): 200 µg/mL; MIC (Klebsiella pneumoniae [2]; clinical isolate GN 4117): 100 µg/mL
"CC1(C)S[C@@H]2[C@H](NC(=O)C(C(=O)O)c3ccccc3)C(=O)N2[C@H]1C(=O)O (stereo partly shown) [Sodium Carbenicillin, SodiumCarbenicillin, reference compound]",> 200 µg/mL,116%,< 1.57 µg/mL,< 1.57 µg/mL,< 1.57 µg/mL,0.4 µg/mL,> 200 µg/mL,> 200 µg/mL,> 200 µg/mL,30 µg/mL,> 200 µg/mL,200 µg/mL,50 µg/mL,50 µg/mL,200 µg/mL,200 µg/mL,200 µg/mL,200 µg/mL,0.8 µg/mL,> 200 µg/mL,MIC [3]: 50 µg/mL; MIC (Klebsiella pneumoniae [4]): > 200 µg/mL; MIC (Pseudomonas aeruginosa; clinical isolate GN 82): 100 µg/mL; MIC (Pseudomonas aeruginosa; clinical isolate GN 163): 50 µg/mL; MIC (Pseudomonas aeruginosa; clinical isolate GN 221): 25 µg/mL; MIC (Pseudomonas aeruginosa; clinical isolate GN 376): 50 µg/mL; MIC (Pseudomonas aeruginosa; clinical isolate GN 1091): 100 µg/mL; MIC (Staphylococcus aureus; clinical isolate MS 8619): 0.79 µg/mL; MIC (Proteus mirabilis): 0.8 µg/mL; MIC (Klebsiella pneumoniae [2]; clinical isolate GN 917): > 200 µg/mL; MIC (Klebsiella pneumoniae [2]; clinical isolate GN 4081): > 200 µg/mL; MIC (Klebsiella pneumoniae [2]; clinical isolate GN 4117): > 200 µg/mL
